# Measurements: US11478416B2, “Ingredients for use in personal care compositions” (Croda, Inc., priority 2016, dated 2022)
# “Also recorded” adds a separate entry of the source.
# Assay: Frizz control test, panel ranking of tresses at 75% RH
# Conditions: from panel ranking
# Protocol: The formulations H to M as set out in Table 4 were prepared. Each hair conditioner formulation was prepared by combining the Part A ingredients while mixing and heating to 75-80° C., and separately combining the Part B ingredients and heating to the same temperature. The Part A and Part B ingredients were then combined while mixing at temperature and allowed to cool to 40° C. Once at 40° C., the Part C ingredients were added and the pH adjusted to about 4.5±0.5 using lactic acid.
# For each formulation H to M, 7 Brazilian curly hair tresses available from International Hair Importers Inc., NYC, were cut to 1.5 cm wide and 20 cm long.
# The tresses were washed with a simple cleansing shampoo (SLES/Betaine shampoo) using a 1:10 w/w shampoo to hair ratio for 1 minute. The tresses were then rinsed with warm water for 1 minute or until free of foam. 3 g of the respective formulation was then massaged into the hair tresses for 1 minute. The treated tresses were left to sit for 20 minutes and then the formulations rinsed out of the hair for 45 seconds. Once rinsed, the tresses were blown dry using a blow dryer and round brush, and then flat-ironed using a ceramic iron at 400° F. for 5 passes. […]
# The panelists were asked to rank the tresses from 1 (least frizz) to 6 (most frizz). The mode and average of the panelists' rankings were calculated for each to give the overall ranking.
substance,measurement,value
Isostearic Acid—DETA Tertiary Amine [Example 3a],"frizz control, conclusion in words",resisted frizz the best; also recorded: aids in frizz control
